Experimental data published in the kinase profiling compilation of Christmann-Franck et al. (2016).

What was measured:
Test in all cases: radiometric filter-binding kinase assay
BRSK1 (human) = BRSK1 (human) (UniProt Q8TDC3)
CaMK1 (human) = CaMK1 (human) (UniProt Q14012)
FLT1 (human) = FLT1 (human) (UniProt P17948)
HIPK2 (human) = HIPK2 (human) (UniProt Q9H2X6)
HIPK3 (human) = HIPK3 (human) (UniProt Q9H422)
IGF1R (human) = IGF1R (human) (UniProt P08069)
IKBKB (human) = IKBKB (human) (UniProt O14920)
INSRR (human) = INSRR (human) (UniProt P14616)
IRAK4 (human) = IRAK4 (human) (UniProt Q9NWZ3)
LCK (mouse) = conditions: accession and sequence are those of the human protein
MAPK10 (human) = MAPK10 (human) (UniProt P53779)
MAPKAPK5 (human) = MAPKAPK5 (human) (UniProt Q8IW41)
MYLK (human) = MYLK (human) (UniProt Q15746)
PIM1 (human) = PIM1 (human) (UniProt P11309)
PIM2 (human) = PIM2 (human) (UniProt Q9P1W9)
PIM3 (human) = PIM3 (human) (UniProt Q86V86)
RIPK2 (human) = RIPK2 (human) (UniProt O43353)
RPS6KA3 KD1 KD2 (human) = RPS6KA3 KD1 KD2 (human) (UniProt P51812)
TBK1 (human) = TBK1 (human) (UniProt Q9UHD2)
TTK (human) = TTK (human) (UniProt P33981)
Sequence of TTK (human) (P33981 whole entry, looked up): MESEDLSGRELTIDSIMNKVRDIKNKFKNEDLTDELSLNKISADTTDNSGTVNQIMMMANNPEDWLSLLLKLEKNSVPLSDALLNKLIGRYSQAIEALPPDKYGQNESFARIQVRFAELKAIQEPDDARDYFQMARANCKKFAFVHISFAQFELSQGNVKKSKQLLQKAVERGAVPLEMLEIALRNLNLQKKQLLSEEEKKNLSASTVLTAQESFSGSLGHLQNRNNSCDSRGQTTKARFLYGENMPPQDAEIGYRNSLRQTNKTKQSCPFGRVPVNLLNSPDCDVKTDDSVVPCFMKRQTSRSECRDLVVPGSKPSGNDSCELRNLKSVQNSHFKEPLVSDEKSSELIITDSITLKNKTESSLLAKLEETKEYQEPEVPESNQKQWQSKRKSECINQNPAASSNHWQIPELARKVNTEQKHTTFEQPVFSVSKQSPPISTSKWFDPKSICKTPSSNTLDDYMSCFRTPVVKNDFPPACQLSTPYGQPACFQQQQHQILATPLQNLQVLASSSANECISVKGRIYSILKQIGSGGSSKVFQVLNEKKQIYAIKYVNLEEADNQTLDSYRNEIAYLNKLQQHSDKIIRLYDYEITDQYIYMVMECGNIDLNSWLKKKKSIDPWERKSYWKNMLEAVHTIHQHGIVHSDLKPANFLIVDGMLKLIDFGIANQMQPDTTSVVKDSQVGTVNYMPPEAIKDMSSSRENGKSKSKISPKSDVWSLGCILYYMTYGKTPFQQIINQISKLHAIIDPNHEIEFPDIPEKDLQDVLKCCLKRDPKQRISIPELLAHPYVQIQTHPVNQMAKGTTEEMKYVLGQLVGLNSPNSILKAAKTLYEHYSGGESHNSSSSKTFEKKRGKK

Sequence of IRAK4 (human) (Q9NWZ3 whole entry, looked up): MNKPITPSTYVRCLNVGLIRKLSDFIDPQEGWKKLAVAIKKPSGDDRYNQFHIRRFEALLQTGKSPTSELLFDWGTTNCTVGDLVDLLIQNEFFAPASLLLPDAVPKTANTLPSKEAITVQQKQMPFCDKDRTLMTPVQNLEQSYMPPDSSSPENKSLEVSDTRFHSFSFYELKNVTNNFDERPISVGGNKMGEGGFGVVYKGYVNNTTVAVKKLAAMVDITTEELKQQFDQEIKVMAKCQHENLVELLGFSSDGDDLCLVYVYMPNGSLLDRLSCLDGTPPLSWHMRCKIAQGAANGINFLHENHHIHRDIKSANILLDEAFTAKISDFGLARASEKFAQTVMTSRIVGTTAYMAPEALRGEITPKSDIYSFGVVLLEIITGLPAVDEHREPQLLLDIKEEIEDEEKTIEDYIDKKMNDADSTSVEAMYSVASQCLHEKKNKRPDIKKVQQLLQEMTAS
Sequence of TBK1 (human) (Q9UHD2 whole entry, looked up): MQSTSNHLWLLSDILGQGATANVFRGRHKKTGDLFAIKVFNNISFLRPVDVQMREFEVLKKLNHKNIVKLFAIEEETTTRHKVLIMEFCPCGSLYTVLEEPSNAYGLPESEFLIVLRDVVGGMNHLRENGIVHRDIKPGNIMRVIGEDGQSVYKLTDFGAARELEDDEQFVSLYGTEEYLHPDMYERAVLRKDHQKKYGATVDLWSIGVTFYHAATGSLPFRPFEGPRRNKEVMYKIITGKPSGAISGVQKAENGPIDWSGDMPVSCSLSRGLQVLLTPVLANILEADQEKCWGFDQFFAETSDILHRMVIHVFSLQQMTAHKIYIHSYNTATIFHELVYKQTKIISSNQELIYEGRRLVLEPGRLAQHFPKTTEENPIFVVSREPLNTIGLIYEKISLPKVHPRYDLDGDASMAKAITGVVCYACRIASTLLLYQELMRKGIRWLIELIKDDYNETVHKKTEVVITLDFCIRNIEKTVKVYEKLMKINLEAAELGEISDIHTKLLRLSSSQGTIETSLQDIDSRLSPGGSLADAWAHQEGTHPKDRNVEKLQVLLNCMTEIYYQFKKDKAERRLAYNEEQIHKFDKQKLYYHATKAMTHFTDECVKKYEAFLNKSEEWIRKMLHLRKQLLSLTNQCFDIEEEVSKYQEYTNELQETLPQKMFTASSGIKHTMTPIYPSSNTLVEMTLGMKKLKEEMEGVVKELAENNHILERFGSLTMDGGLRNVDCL
Sequence of FLT1 (human) (P17948 whole entry, looked up): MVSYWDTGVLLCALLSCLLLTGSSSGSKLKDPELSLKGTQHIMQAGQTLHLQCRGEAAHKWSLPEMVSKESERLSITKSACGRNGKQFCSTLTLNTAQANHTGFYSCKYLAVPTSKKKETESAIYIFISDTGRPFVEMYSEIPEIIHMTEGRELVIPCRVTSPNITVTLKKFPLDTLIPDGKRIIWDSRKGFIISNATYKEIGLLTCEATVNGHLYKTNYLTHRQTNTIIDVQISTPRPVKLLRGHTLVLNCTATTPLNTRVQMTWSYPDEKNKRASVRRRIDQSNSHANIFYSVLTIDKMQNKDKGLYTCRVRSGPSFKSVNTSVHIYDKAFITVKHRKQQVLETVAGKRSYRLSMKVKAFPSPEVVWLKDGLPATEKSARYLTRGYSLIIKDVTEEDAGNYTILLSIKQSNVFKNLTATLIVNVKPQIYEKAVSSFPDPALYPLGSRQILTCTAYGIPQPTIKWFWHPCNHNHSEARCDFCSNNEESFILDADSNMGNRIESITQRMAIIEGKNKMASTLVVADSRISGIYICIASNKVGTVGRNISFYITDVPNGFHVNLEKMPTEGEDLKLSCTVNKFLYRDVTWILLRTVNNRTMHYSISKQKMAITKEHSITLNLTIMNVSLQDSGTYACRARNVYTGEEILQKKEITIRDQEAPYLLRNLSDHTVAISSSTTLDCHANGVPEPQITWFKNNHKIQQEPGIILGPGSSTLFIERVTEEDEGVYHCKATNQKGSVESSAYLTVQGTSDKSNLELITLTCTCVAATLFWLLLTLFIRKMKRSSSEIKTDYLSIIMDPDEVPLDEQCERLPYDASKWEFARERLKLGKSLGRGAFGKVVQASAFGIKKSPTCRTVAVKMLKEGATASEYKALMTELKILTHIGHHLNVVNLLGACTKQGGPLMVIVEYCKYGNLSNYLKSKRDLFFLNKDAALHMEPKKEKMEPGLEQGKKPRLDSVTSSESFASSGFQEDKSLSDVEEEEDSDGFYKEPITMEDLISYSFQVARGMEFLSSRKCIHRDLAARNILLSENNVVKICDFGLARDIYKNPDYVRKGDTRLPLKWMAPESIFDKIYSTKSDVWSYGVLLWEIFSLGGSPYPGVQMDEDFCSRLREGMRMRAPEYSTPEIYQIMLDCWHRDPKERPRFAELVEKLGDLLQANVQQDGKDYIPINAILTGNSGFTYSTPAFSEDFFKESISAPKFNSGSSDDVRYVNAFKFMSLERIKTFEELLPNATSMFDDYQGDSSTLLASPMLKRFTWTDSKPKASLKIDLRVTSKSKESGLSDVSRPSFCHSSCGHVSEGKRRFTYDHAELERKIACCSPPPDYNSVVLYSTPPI
Sequence of HIPK3 (human) (Q9H422 whole entry, looked up): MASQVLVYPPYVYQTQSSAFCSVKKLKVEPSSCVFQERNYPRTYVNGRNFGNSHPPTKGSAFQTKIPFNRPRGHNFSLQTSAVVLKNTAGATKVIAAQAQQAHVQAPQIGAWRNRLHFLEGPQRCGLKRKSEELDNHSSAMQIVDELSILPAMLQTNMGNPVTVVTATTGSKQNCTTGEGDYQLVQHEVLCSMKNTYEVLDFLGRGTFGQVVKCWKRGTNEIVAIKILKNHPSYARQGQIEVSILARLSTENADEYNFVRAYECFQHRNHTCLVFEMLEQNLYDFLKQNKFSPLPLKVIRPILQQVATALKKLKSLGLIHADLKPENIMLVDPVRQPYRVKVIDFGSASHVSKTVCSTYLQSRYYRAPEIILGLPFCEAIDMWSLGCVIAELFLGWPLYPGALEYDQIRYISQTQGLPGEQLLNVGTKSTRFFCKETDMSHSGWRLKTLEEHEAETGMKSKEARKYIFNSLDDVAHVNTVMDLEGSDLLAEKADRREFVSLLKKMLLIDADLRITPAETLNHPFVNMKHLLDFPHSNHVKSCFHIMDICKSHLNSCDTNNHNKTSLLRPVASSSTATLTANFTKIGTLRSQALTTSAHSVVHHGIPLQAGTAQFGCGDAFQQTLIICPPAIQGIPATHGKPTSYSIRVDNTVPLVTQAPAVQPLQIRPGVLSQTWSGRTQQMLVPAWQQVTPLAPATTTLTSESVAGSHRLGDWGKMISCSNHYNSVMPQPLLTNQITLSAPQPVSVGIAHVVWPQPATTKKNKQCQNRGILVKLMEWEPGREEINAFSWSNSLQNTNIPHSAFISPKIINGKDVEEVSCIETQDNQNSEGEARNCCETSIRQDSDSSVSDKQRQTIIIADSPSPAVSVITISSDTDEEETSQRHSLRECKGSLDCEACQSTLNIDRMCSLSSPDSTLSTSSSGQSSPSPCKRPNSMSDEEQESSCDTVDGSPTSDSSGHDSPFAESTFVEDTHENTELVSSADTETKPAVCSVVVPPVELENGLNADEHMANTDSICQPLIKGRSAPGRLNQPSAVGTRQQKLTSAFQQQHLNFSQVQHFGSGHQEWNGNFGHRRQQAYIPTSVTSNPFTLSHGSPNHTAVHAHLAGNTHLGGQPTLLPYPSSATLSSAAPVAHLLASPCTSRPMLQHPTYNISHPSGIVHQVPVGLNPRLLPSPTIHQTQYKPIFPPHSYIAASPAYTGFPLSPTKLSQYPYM

residual activity (BRSK1 (human); compound 0.01 µM): 110% | residual activity (BRSK1 (human); compound 0.1 µM): 95% | residual activity (BRSK1 (human); compound 1.0 µM): 57% | residual activity (CaMK1 (human); compound 0.01 µM): 108% | residual activity (CaMK1 (human); compound 0.1 µM): 112% | residual activity (CaMK1 (human); compound 1.0 µM): 117% | residual activity (FLT1 (human); compound 0.01 µM): 98% | residual activity (FLT1 (human); compound 0.1 µM): 108% | residual activity (FLT1 (human); compound 1.0 µM): 89% | residual activity (HIPK2 (human); compound 0.01 µM): 119% | residual activity (HIPK2 (human); compound 0.1 µM): 124% | residual activity (HIPK2 (human); compound 1.0 µM): 113% | residual activity (HIPK3 (human); compound 0.01 µM): 111% | residual activity (HIPK3 (human); compound 0.1 µM): 105% | residual activity (HIPK3 (human); compound 1.0 µM): 106% | residual activity (IGF1R (human); compound 0.01 µM): 126% | residual activity (IGF1R (human); compound 0.1 µM): 115% | residual activity (IGF1R (human); compound 1.0 µM): 107% | residual activity (IKBKB (human); compound 0.01 µM): 105% | residual activity (IKBKB (human); compound 0.1 µM): 112% | residual activity (IKBKB (human); compound 1.0 µM): 98% | residual activity (INSRR (human); compound 0.01 µM): 111% | residual activity (INSRR (human); compound 0.1 µM): 111% | residual activity (INSRR (human); compound 1.0 µM): 109% | residual activity (IRAK4 (human); compound 0.01 µM): 109% | residual activity (IRAK4 (human); compound 0.1 µM): 112% | residual activity (IRAK4 (human); compound 1.0 µM): 106% | residual activity (LCK (mouse); compound 0.01 µM): 112% | residual activity (LCK (mouse); compound 0.1 µM): 107% | residual activity (LCK (mouse); compound 1.0 µM): 114% | residual activity (MAPK10 (human); compound 0.01 µM): 106% | residual activity (MAPK10 (human); compound 0.1 µM): 106% | residual activity (MAPK10 (human); compound 1.0 µM): 100% | residual activity (MAPKAPK5 (human); compound 0.01 µM): 81% | residual activity (MAPKAPK5 (human); compound 0.1 µM): 92% | residual activity (MAPKAPK5 (human); compound 1.0 µM): 76% | residual activity (MYLK (human); compound 0.01 µM): 116% | residual activity (MYLK (human); compound 0.1 µM): 113% | residual activity (MYLK (human); compound 1.0 µM): 92% | residual activity (PIM1 (human); compound 0.01 µM): 99% | residual activity (PIM1 (human); compound 0.1 µM): 100% | residual activity (PIM1 (human); compound 1.0 µM): 98% | residual activity (PIM2 (human); compound 0.01 µM): 97% | residual activity (PIM2 (human); compound 0.1 µM): 100% | residual activity (PIM2 (human); compound 1.0 µM): 97% | residual activity (PIM3 (human); compound 0.01 µM): 105% | residual activity (PIM3 (human); compound 0.1 µM): 112% | residual activity (PIM3 (human); compound 1.0 µM): 97% | residual activity (RIPK2 (human); compound 0.01 µM): 110% | residual activity (RIPK2 (human); compound 0.1 µM): 114% | residual activity (RIPK2 (human); compound 1.0 µM): 107% | residual activity (RPS6KA3 KD1 KD2 (human); compound 0.01 µM): 96% | residual activity (RPS6KA3 KD1 KD2 (human); compound 0.1 µM): 97% | residual activity (RPS6KA3 KD1 KD2 (human); compound 1.0 µM): 79% | residual activity (TBK1 (human); compound 0.01 µM): 110% | residual activity (TBK1 (human); compound 0.1 µM): 115% | residual activity (TBK1 (human); compound 1.0 µM): 109% | residual activity (TTK (human); compound 0.01 µM): 90% | residual activity (TTK (human); compound 0.1 µM): 98% | residual activity (TTK (human); compound 1.0 µM): 82%
SMILES: CNc1nc(-c2ccc3c(N)n[nH]c3c2)cc(N2C[C@@H](C(=O)NC3CCCCC3)CC[C@H]2C)n1
